Measurements as given in patent US10099998B2, “Compound, and separation method, synthesis method and use thereof” (BEIJING PEKING UNIVERSITY WBL BIOTECH CO., LTD., priority 2015, dated 2018).

Target: T1, HMG-CoA reductase (Rattus norvegicus, UniProt P51639)
T1 construct: the male rat liver was removed and rinsed with KESD buffer; from tissue; host or cells: male rat liver microsomes
T1 sequence (P51639 1-887): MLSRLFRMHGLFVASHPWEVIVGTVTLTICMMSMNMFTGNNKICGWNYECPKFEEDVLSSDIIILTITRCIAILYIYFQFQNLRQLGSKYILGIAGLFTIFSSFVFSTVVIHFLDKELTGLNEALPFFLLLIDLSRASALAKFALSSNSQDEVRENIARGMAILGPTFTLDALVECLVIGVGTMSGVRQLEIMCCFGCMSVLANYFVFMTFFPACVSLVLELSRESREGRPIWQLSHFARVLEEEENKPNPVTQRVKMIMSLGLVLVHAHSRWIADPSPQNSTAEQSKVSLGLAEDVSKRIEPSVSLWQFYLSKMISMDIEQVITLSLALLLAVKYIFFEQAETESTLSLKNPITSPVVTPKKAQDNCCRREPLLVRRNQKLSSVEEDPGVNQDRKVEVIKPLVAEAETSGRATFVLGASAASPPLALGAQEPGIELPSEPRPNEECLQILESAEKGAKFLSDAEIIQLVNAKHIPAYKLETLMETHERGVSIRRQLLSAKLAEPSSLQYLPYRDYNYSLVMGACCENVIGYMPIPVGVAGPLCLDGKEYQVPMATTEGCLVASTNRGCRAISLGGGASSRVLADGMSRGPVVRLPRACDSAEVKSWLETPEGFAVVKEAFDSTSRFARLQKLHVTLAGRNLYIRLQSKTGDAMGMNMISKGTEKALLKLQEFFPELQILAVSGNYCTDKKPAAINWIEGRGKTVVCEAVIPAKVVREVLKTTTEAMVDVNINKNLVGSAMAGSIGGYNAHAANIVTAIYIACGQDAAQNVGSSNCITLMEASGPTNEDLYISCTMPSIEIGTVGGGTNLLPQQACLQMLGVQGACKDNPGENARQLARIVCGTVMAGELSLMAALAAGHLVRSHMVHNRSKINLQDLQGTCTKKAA
Experiment: Assay on HMG-CoA reductase-inhibiting activity (decreasing rate of OD340)
Format: biochemical
Settings: for Inhibition rate (%): rat liver microsomes, 37° C., pH 6.8; for Slope (decreasing rate of OD340 within 5 min): blank control slope 13.5
Method: Rat liver microsomes (HMG-CoA reductase) were commercially purchased, or were prepared by reference to the following method: the male rat liver was removed and rinsed with KESD buffer, and then centrifuged at 12,000 g for 15 min. The supernatant was taken. After centrifugation at 105,000 g for 90 min twice, the centrifuged pellets resulted from centrifugation were collected. To the centrifuged pellets, 8.3% glycerol was added, and the resultant mixture was heated in a 37° C. warm bath for 1 h. The crude product of the rat liver microsomes was purified with saturated ammonium sulfate, and the 35-50% purified fraction was collected. The rat liver microsomes obtained were stored in −80° C. refrigerator.
Compound 5 was dissolved in 75% ethanol solution, at an initial concentration of 8.6 mg/ml, and was subjected to stepwise dilution to obtain 4.3 mg/ml, 2.15 mg/ml. The total volume of the test system was 250 μl, and the concentrations of various ingredients were as follows: 200 mM potassium chloride, 160 mM potassium dihydrogen phosphate, 4 mM ethylenediamine tetra acetic acid, 10 mM dithiothreitol, and the concentrations for the two substrates […] and 3-hydroxy-3-methylglutaryl-coenzyme A were 200 μM and 50 μM, pH 6.8, respectively, wherein 30 μl was added for enzyme, 5 μl was added for the test group, and 5 μl (solvent for dissolving the sample) was added for the control group. The dynamic change in OD340 was determined at 37° C. by Versamax ELISA Microplate Reader. The decreasing rate of OD340 (represented by slope) was measured within 5 min, to evaluate the HMG-CoA reductase activity, and to further evaluate the enzyme-inhibiting activity.

| Inhibition rate (%) (final concentration 80 μg/ml (inhibitor 4.0 mg/ml, 5 μl)) | Slope (decreasing rate of OD340 within 5 min) (final concentration 80 μg/ml) | Inhibition rate (%) (final concentration 43 μg/ml (inhibitor 2.15 mg/ml, 5 μl)) | Slope (decreasing rate of OD340 within 5 min) (final concentration 43 μg/ml) | Inhibition rate (%) (final concentration 86 μg/ml (inhibitor 4.3 mg/ml, 5 μl)) | Slope (decreasing rate of OD340 within 5 min) (final concentration 86 μg/ml) | Inhibition rate (%) (final concentration 172 μg/ml (inhibitor 8.6 mg/ml, 5 μl)) | Slope (decreasing rate of OD340 within 5 min) (final concentration 172 μg/ml) | Structure (SMILES) | HMG-CoA reductase inhibition, result in words (43-172 μg/ml, dose-response relationship) |
| --- | --- | --- | --- | --- | --- | --- | --- | --- | --- |
| 39.2 | 8.2 | – | – | – | – | – | – | CC[C@H](C)C(=O)O[C@H]1C[C@@H](C)C=C2C=C[C@H](C)[C@H](CC[C@@H]3C[C@@H](O)CC(=O)O3)[C@H]21 [lovastatin, reference compound] | – |
| – | – | 19.2 | 10.9 | 33.3 | 9.0 | 42.2 | 7.8 | COC(=O)CC(O)CC(O)CCC1c2ccc(C)cc2C=CC1C (stereo not drawn) [Compound 5, methyl 7-(2,6-dimethyl-1,2-dihydronaphthalen-1-yl)-3,5-dihydroxyheptanoate] | inhibited the HMG-CoA reductase activity, and exhibited a dose-response relationship |
